Each structure is given as a SMILES string.

The subject of assay [1] is 60 human cancer cell lines. In words: NCI single-dose study. The assay is classed as cell-based. The settings on record: single dose 10 µM, all 60 cell lines. An excerpt:
All the synthesized compounds (1a–1j and 2a–2j) were initially assessed for their anticancer potential at the National Cancer Institute (NCI, USA) against a diverse panel of 60 human cancer cell lines, representing nine distinct cancer types including leukemia, non-small-cell lung, colon, CNS, melanoma, ovarian, renal, prostate, and breast. The testing protocol employed by the NCI encompasses two stages: initial assessment at a single dose and subsequent evaluation at five doses.
Initially, a comprehensive anticancer screening of all twenty compounds (1a–1j and 2a–2j), including the parent compounds ADG and ISOADG, was conducted using a 10 µM dose across all 60 cell lines (a standardized protocol followed for the initial assessment of test compounds by the NCI). […] As a result, these ten compounds were chosen for five-dose studies.

Assay [2] is described as follows: DPPH radical scavenging assay. The settings on record: 25 µM test compound, 0.1 mM DPPH, acetonitrile, 30 min. On the procedure:
A stable free radical DPPH (2,2-Diphenyl-1-picrylhydrazyl) assay was employed to test the antioxidant activity of all the synthesized compounds. Concisely, 25 µM of the test compounds were dissolved in acetonitrile and combined with 0.1 mM of DPPH (in acetonitrile) in a 1:2 ratio (80 µL and 160 µL). Then, the mixture was left undisturbed in the dark for 30 min at room temperature. After 30 min, the absorbance of the solutions was instantly measured at 517 nm using a Varioskan Multiplate Reader (Thermo Fisher Scientific, Mumbai, India). Ascorbic acid (in acetonitrile) was used as the positive control, and andrographolide and isoandrogapholide (in acetonitrile) were used as the standards. The following equation was used to determine the DPPH radical scavenging activity:% Radical scavenging activity = (Ac − As)/Ac × 100 where Ac = the absorbance of the blank (DPPH solution), and As = the absorbance of the test samples

Turning to `C=C1CC[C@@H]2[C@](C)(CO)[C@H](O)CC[C@@]2(C)[C@@H]1C/C=C1/C(=O)OC[C@H]1O` [ADG, andrographolide], the “% growth inhibition” value in assay [1] is on record as “lower % growth inhibition”. The “% DPPH radical scavenging activity” value in assay [2] amounted to 58.74%.

Turning to `CC12CC[C@@H]3[C@](C)(CO)[C@H](O)CC[C@@]3(C)[C@@H]1CC(C1=CCOC1=O)O2` (some centres unmarked) [ISOADG, isoandrographolide, reference compound], in assay [1], the “% growth inhibition” value was “lower % growth inhibition”. Besides, the “% DPPH radical scavenging activity” value in assay [2] came to 57.94%.

As for `O=C1O[C@H]([C@@H](O)CO)C(O)=C1O` [ascorbic acid, reference compound], in assay [2], the “% DPPH radical scavenging activity” value was determined as 69.26%.

Source of the values: article PMC12298351, “Novel 3,19-(N-Phenyl-3-(4-fluorophenyl)-pyrazole) Acetal of Andrographolide Promotes Cell Cycle Arrest and Apoptosis in MDA-MB-231 Breast Cancer Cells” (Pharmaceuticals, 2025).
